According to patent publication US11639940B2, “Method for determining sensitivity of cyclin-dependent kinase 4/6 inhibitor” (SYSMEX CORPORATION, priority 2019, dated 2023):
Where two headings read alike, the source gives them in different places.

Key:
[1] = test system: MDA-MB-231; test: cytotoxicity test using WST-8 (number of viable cells); assay type: cell-based; conditions: Homo sapiens, MDA-MB-231, 48 hours
Excerpt: (§1) Six types of breast cancer cell lines, T47D, MCF7, HCC1500, CAMA-1, DU4475 and MDA-MB-231, were used. T47D, MCF7, HCC1500 and CAMA-1 are HER2-negative/ER-positive breast cancer cell lines, and DU4475 and MDA-MB-231 are cell lines derived from triple negative breast cancer (TNBC). […] In the analysis, the survival rate of the untreated cell line was set to 100%.

[2] = test system: HCC1500; test: as above; assay type: cell-based; conditions: HCC1500, 48 hours
Excerpt: as §1

[3] = test system: DU4475; test: as above; assay type: cell-based; conditions: Homo sapiens, DU-4475, 48 h, DU4475, 48 hours
Excerpt: as §1

[4] = test system: T47D; test: as above; assay type: cell-based; conditions: Homo sapiens, 48 hours
Excerpt: as §1

[5] = test system: MCF7; test: as above; assay type: cell-based; conditions: Homo sapiens, MCF7, 48 hours
Excerpt: as §1

[6] = test system: CAMA-1; test: as above; assay type: cell-based; conditions: Homo sapiens, CAMA-1, 48 hours
Procedure: as §1, with “100%. The IC50 value was calculated from the normalized data by performing curve fitting using KaleidaGraph 4.0.” for “100%.”

[7] = test system: breast cancer cell lines; test: cytotoxicity test using WST-8, summary over the cell lines; assay type: cell-based
Excerpt: as §1

[8] = test system: CDK2; test: expression level by Western blot in lysate of treated breast cancer cell lines; assay type: cell-based; conditions: 48 h
Procedure: (§2) After 48 hours, cells were recovered.
(§3) To quantitatively analyze the expression levels, recombinant CDK proteins (rCDK2, rCDK4 and rCDK6) were electrophoresed at 5.0 ng, 2.5 ng, 1.0 ng, 0.75 ng, 0.5 ng and 0.2 ng as standard proteins.

[9] = test system: CDK6; test: as above; assay type: cell-based; conditions: 48 h
Procedure: as §2, §3

[10] = test system: CDK4; conditions: 48 h
Procedure: After 48 hours, cells were recovered. A cell solubilization buffer was added to a cell pellet to be 5×10^7 cells/mL to lyse the cells, and the supernatant was recovered by centrifugation to obtain a cell lysate (hereinafter also referred to as a “lysate sample”).
The expression levels of CDK2, CDK4 and CDK6 were measured by Western blot as follows. Samples for electrophoresis (1 mg/mL lysate sample, 2×sample buffer and 10% 2-mercaptoethanol) were prepared from each lysate sample obtained in the above (2). Each of samples for electrophoresis (10 μL/lane) was electrophoresed on a polyacrylamide gel. To quantitatively analyze the expression levels, recombinant CDK proteins (rCDK2, rCDK4 and rCDK6) were electrophoresed at 5.0 ng, 2.5 ng, 1.0 ng, 0.75 ng, 0.5 ng and 0.2 ng as standard proteins. The gel after electrophoresis was transferred to a membrane by a conventional method, and a primary reaction was performed using an anti-CDK2 antibody, an anti-CDK4 antibody, and an anti-CDK6 antibody. Then, a secondary reaction was performed using an HRP-labeled antibody, and further reacted with SuperSignal West Femto Substrate (Thermo Fisher), and a chemiluminescent signal was detected with an X-ray film. The blot was quantitatively analyzed by Image Lab 5.2.1 (Bio Rad) to calculate the expression levels (nmol/L) of CDK2, CDK4 and CDK6 in each lysate sample.

[11] = test system: CDK2; test: CDK activity (phosphorylated substrate peptide, HISCL ELISA) in lysate of treated breast cancer cell lines; assay type: cell-based; set-up: CDK2 Activity: unit not given here; conditions: 48 h; for CDK2 Specific activity: activity/expression level
Procedure: After 48 hours, cells were recovered. […] Specifically, it was performed as follows. […] The composition of the substrate solution was as follows. […] The measurement was performed by Automated Immunoassay System […] Corporation). This measurement is based on ELISA on magnetic particles.

Structure (SMILES): CC(=O)c1c(C)c2cnc(Nc3ccc(N4CCNCC4)cn3)nc2n(C2CCCC2)c1=O [palbociclib]
- IC50 [1]: 475 nM
- IC50 [2]: 5360 nM
- IC50 [3]: > 10000 nM
- IC50 [4]: 202 nM
- IC50 [5]: 767 nM
- IC50 [6]: 888 nM
- IC50 ([7]; average over the breast cancer cell lines, read-out: IC50 Average): 1540 nM
- IC50 ([7]; median over the breast cancer cell lines, read-out: IC50 Median): 767 nM
- Expression level CDK2 ([8]; CAMA-1, palbociclib 426 nM): 2.8 nmol/L
- Expression level CDK2 ([8]; DU4475, palbociclib 426 nM): 12.3 nmol/L
- Expression level CDK2 ([8]; HCC1500, palbociclib 426 nM): 2.9 nmol/L
- Expression level CDK2 ([8]; MCF7, palbociclib 426 nM): 3.0 nmol/L
- Expression level CDK2 ([8]; MDA-MB-231, palbociclib 426 nM): 3.0 nmol/L
- Expression level CDK2 ([8]; T47D, palbociclib 426 nM): 5.7 nmol/L
- Expression level CDK6 ([9]; CAMA-1, palbociclib 426 nM): 0.4 nmol/L
- Expression level CDK6 ([9]; DU4475, palbociclib 426 nM): 60.9 nmol/L
- Expression level CDK6 ([9]; HCC1500, palbociclib 426 nM): 0.4 nmol/L
- Expression level CDK6 ([9]; MCF7, palbociclib 426 nM): 4.3 nmol/L
- Expression level CDK6 ([9]; MDA-MB-231, palbociclib 426 nM): 20.1 nmol/L
- Expression level CDK4 ([10]; CAMA-1, palbociclib 426 nM): 18.9 nmol/L
- Expression level CDK4 ([10]; DU4475, palbociclib 426 nM): 16.6 nmol/L
- Expression level CDK4 ([10]; HCC1500, palbociclib 426 nM): 12.7 nmol/L
- Expression level CDK4 ([10]; MCF7, palbociclib 426 nM): 39.4 nmol/L
- Expression level CDK4 ([10]; MDA-MB-231, palbociclib 426 nM): 20.7 nmol/L
- Expression level CDK4 ([10]; T47D, palbociclib 426 nM): 18.8 nmol/L
- CDK2 Activity ([11]; CAMA-1, palbociclib 426 nM): 0.7
- CDK2 Specific activity ([11]; CAMA-1, palbociclib 426 nM): 0.25
- CDK2 Activity ([11]; DU4475, palbociclib 426 nM): 14.5
- CDK2 Specific activity ([11]; DU4475, palbociclib 426 nM): 1.17
- CDK2 Activity ([11]; HCC1500, palbociclib 426 nM): 0.7
- CDK2 Specific activity ([11]; HCC1500, palbociclib 426 nM): 0.25
- CDK2 Activity ([11]; MCF7, palbociclib 426 nM): 1.6
- CDK2 Specific activity ([11]; MCF7, palbociclib 426 nM): 0.53
- CDK2 Activity ([11]; MDA-MB-231, palbociclib 426 nM): 0.7
- CDK2 Specific activity ([11]; MDA-MB-231, palbociclib 426 nM): 0.24
- CDK2 Activity ([11]; T47D, palbociclib 426 nM): 2.1
- CDK2 Specific activity ([11]; T47D, palbociclib 426 nM): 0.36
